Test results reported in patent US12077534B2, “Aza-heterobicyclic inhibitors of MAT2A and methods of use for treating cancer” (Les Laboratoires Servier SAS, priority 2018, dated 2024).

Key:
[1] = biological target: T1, MAT2A homodimer (Homo sapiens, UniProt P31153); experiment: MAT2A biochemical assay (phosphate release, PiColorLock Gold); conditions: recombinant MAT2A homodimer, 60 min pre-incubation, 25° C.; read-out: Enzyme Inhibition
T1 construct: inferred from Ni sepharose purification and imidazole elution; made in house; host or cells: SF9 insect cells, recombinant baculovirus (Bac to Bac, pFASTBAC1)
T1 sequence (P31153 whole entry): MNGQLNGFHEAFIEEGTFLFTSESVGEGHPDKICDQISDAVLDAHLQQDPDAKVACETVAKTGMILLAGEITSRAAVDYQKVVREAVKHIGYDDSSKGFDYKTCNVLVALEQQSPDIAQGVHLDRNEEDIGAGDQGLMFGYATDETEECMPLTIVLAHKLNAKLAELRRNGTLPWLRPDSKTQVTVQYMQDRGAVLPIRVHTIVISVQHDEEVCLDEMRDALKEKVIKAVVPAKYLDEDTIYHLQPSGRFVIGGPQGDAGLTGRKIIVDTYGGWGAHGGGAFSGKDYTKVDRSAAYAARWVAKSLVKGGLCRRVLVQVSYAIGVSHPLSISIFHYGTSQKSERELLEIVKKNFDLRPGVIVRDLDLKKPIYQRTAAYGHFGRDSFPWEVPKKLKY
Method: Mat2A protein was expressed by recombinant baculovirus in SF9 infected cells using the Bac to Bac system cloned into the pFASTBAC1 vector (Invitrogen, Carlsbad, CA). Recombinant MAT2A was isolated from the cell lysate of 150 g of infected cells using HP Ni sepharose column chromatography. Recombinant MAT2A homodimer was eluted with 250 and 500 mM imidazole, and fractions containing MAT2A were identified by sodium dodecyl sulfate polyacrylamide gel electrophoresis and pooled.
For determination of the inhibitory potency of compounds against the MAT2A homodimer, protein was diluted to 4 μg/mL in assay buffer (50 mM Tris, pH 8.0, 50 mM KCl, 15 mM MgCl2, 0.3 mM EDTA, 0.005% [w/v] bovine serum albumin [BSA]). Test compound was prepared in 100% dimethyl sulfoxide (DMSO) at 50× the desired final concentration. A 1 μL volume of compound dilution was added to 40 μL of enzyme dilution and the mixture was allowed to equilibrate for 60 minutes at 25° C. The enzymatic assay was initiated by the addition of 10 μL of substrate mix (500 μM ATP, pH 7.0, 400 μM L-methionine in 1× assay buffer), and the mixture was incubated for a further 60 minutes at 25° C. The reaction was halted and the liberated phosphate released by the enzyme in stoichiometric amounts by the production of S-adenosyl methionine (SAM) was measured using the PiColorLock Gold kit (Innova Biosciences, UK). Absolute product amounts were determined by comparison to a standard curve of potassium phosphate buffer, pH 8.0.

[2] = system: MAT2A activity (SAM) in HCT116 cells with deleted MTAP gene; experiment: Cellular assay of target engagement (SAM) by LC-MS/MS; format: cell-based; conditions: Homo sapiens, HCT-116; HCT116 MTAP −/−, 72 hrs; read-out: Cell 72 h SAM Inhibition (MTAP −/−)
Method: Measurement of MAT2A activity in cells was made by direct quantitation of the abundance of the product of its enzymatic activity, SAM. Cancer cells were treated with candidate MAT2A inhibitors for a suitable incubation period, and the cells were then lysed using a reagent which quenched any further enzyme activity. Soluble metabolites including SAM were collected and SAM itself was directly measured from the lysate using quantitative LC-MS/MS.
A typical assay was performed using an HCT116 human colon carcinoma cell line which was genetically engineered to delete the MTAP gene (commercially available from Horizon Discovery). This cell line was utilized because it was determined that loss of the MTAP gene predicts sensitivity to MAT2A inhibitors. Cells were plated in 96-well dishes at appropriate cell density. Following 24 hours, cells were then treated with the candidate MAT2A inhibitor. Prior to addition to cells, the compound was first serially diluted in 100% DMSO, typically as a 3-fold serial dilution starting at 500× top dose with 10 dose points including DMSO only control. Compound was then transferred to a working stock plate in cell culture media by adding 5 μL of compound in DMSO to 495 μL of cell culture media. This working stock was then added to cells via a further 5-fold dilution, by adding 25 μL of working stock to 100 μL of cells in culture media. Following compound addition, cells were incubated at 37° C./5% CO2 for 72 hrs.
To quantitate SAM levels following compound treatment, cells were gently washed once in ammonium carbonate buffer (75 mM at pH 7.4), placed on dry ice, and lysed with metabolite extraction buffer (80% cold methanol and 20% water (v/v) with acetic acid at 1M final concentration with 200 ng/mL deuterated d3-SAM as internal control). Following centrifugation at 4° C. at 3,200 rpm for 30 minutes, the supernatant was collected and stored at −80° C. until analysis by Liquid Chromatography with tandem Mass Spectrometry (LC-MS/MS). LC-MS/MS analysis was performed using an API6500 Mass Spectrometer (Sciex, Framingham, MA, USA) operating in positive ion spray mode and equipped with a Waters UPLC Acquity (Waters, Milford, MA, USA) BEH Amide column. Multiple Reaction Monitoring data was acquired for SAM and the d3-SAM standard, using a mass transition pair at m/z 399.2→250.1 and 402.2→250.1, respectively. In a typical LC-MS/MS analysis, the initial flow rate was 0.5 ml/min of 25% mobile phase A (acetonitrile and water at 5:95 (v/v) with 1% formic acid and 10 mM ammonium acetate) and 75% mobile phase B (acetonitrile and water at 95:5 (v/v) with 1% formic acid and 10 mM ammonium acetate), 0.2-0.5 minutes with 75%-35% mobile phase B, 25%-65% mobile phase A, at 0.5 min 65% mobile phase A and 35% mobile phase B, 1.0-1.1 minutes with 35%-75% mobile phase B, 65%-25% mobile phase A, at 1.1 min 25% mobile phase A and 75% mobile phase B with a total run time of 1.5 minutes.

[3] = system: HCT116 MTAP−/−; experiment: Inhibition of cellular proliferation (Cell Titer Glo), HCT116 MTAP-/-; format: cell-based; conditions: Homo sapiens, HCT-116, 96 h, 4 days, read-out: 4 Day Relative Growth Inhibition (MTAP −/−)
Method: (§1) Test compound impact on cancer cell growth was assessed by treating cancer cells with compound for 4 days and then measuring proliferation using an ATP-based cell proliferation readout (Cell Titer Glo, Promega Corporation).
(§2) In a typical assay an isogenic pair of HCT116 human colon carcinoma cell lines which vary only in MTAP deletion status (HCT116 MTAP+/+ and HCT116 MTAP−/−) were plated in 96-well dishes at appropriate cell density. Following 24 hours, cells were then treated with the candidate MAT2A inhibitor. Prior to addition to cells, the compound was first serially diluted in 100% DMSO, typically as a 3-fold serial dilution starting at 500× top dose with 10 dose points including DMSO only control. Compound was then transferred to a working stock plate in cell culture media by adding 5 μL of compound in DMSO to 495 μL of cell culture media. This working stock was then added to cells via a further 5-fold dilution, by adding 25 μL of working stock to 100 μL of cells in culture media. Following compound addition, cells were incubated at 37° C./5% CO2 for 4 days.
(§3) To measure inhibition of cellular proliferation, cells were allowed to equilibrate to room temperature for 30 minutes, and were then treated with 125 μL of Cell Titer Glo reagent. The plate was then covered with aluminum foil and shaken for 15 minutes to ensure complete mixing and full cell lysis. Luminescent signal was then measured using a plate-based luminometer Veritas version 1.9.2 using ATP standard curve to confirm assay reproducibility from run to run. This luminescence measure was converted to a proliferation index by subtracting from each data point the ATP luminescence signal measured from a bank (no cells) well and dividing by the ATP luminescence signal measured in 0.2% DMSO control well adjusted for signal in blank well. Compound activity was then represented as a percentage change in proliferation relative to a within-plate DMSO control against log 10 of compound concentration in molar (M) units.

[4] = system: HCT116 MTAP+/+; experiment: Inhibition of cellular proliferation (Cell Titer Glo), HCT116 MTAP+/+; format: cell-based; conditions: Homo sapiens, HCT-116, 96 h, 4 days, read-out: 4 Day Relative Growth Inhibition (MTAP +/+)
Method: as §1, §2, §3

Row | SMILES | IC50 [1] | IC50 [2] | IC50 [3] | IC50 [4]
1 | Cn1cc2cc(-n3nc4ccc(OCC5CC5)nc4c(-c4ccc(Cl)cc4)c3=O)ccc2n1 [Example 101, 4-(4-chlorophenyl)-6-(cyclopropylmethoxy)-2-(2-methyl-2H-indazol-5-yl)pyrido[3,2-c]pyridazin-3(2H)-one] | < 0.1 µM | < 0.1 µM | 0.1 to 1 µM | ≥ 1 µM
2 | CCNc1ccc2nn(-c3ccc4nn(C)cc4c3)c(=O)c(-c3ccc(Cl)cc3)c2n1 [Example 103, 4-(4-chlorophenyl)-6-(ethylamino)-2-(2-methyl-2H-indazol-5-yl)pyrido[3,2-c]pyridazin-3(2H)-one] | < 0.1 µM | < 0.1 µM | < 0.1 µM | ≥ 1 µM
3 | CCOc1ccc2nn(-c3ccc4nn(C)cc4c3)c(=O)c(-c3ccc(OC(F)(F)F)cc3)c2n1 [Example 104] | < 0.1 µM | 0.1 to 1 µM | 0.1 to 1 µM | ≥ 1 µM
4 | COc1ccc(-n2nc3ccc(OCC(F)F)nc3c(-c3ccc(OC(F)F)cc3)c2=O)cc1 [Example 105] | < 0.1 µM | 0.1 to 1 µM | 0.1 to 1 µM | ≥ 1 µM
5 | COc1ccc(-c2c(=O)n(-c3ccc4nn(C)cc4c3)nc3ccc(OCC(F)F)nc23)cc1 [Example 106] | < 0.1 µM | < 0.1 µM | < 0.1 µM | 0.1 to 1 µM
6 | COc1ccc(-n2nc3ccc(OCC(F)(F)F)nc3c(-c3ccc(Cl)cc3)c2=O)cc1 [Example 118] | 0.1 to 1 µM |  |  | 
7 | Cn1cc2cc(-n3nc4ccc(N5CCC5)nc4c(-c4ccc(OC(F)F)cc4)c3=O)ccc2n1 [Example 164] | 0.1 to 1 µM |  |  | 
8 | N#Cc1ccc(-n2nc3ccc(OCC(F)F)nc3c(-c3ccc(OC(F)F)cc3)c2=O)cc1 [Example 181] | 1 to 10 µM |  |  | 
9 | CNc1ccc(-n2nc3ccc(OCC(F)F)nc3c(-c3ccc(OC(F)F)cc3)c2=O)cc1 [Example 185] | 0.1 to 1 µM |  |  | 
10 | O=c1c(-c2ccc(OC(F)F)cc2)c2nc(OCC(F)F)ccc2nn1-c1cncs1 [Example 186] | 0.1 to 1 µM |  |  | 
11 | O=c1c(-c2ccc(OC(F)F)cc2)c2nc(OCC(F)F)ccc2nn1-c1ccc(Cl)cc1 [Example 190] | 1 to 10 µM |  |  | 
12 | CN(C)c1ccc2nn(-c3ccc4nn(C)c(N(C)C)c4c3)c(=O)c(-c3ccc(OC(F)F)cc3)c2n1 [Example 204, 4-(4-(difluoromethoxy)phenyl)-6-(dimethylamino)-2-(3-(dimethylamino)-2-methyl-2H-indazol-5-yl)pyrido[3,2-c]pyridazin-3(2H)-one] | < 0.1 µM |  |  | 
13 | Cn1cc2cc(-n3nc4ccc(OCC(F)F)nc4c(C#C[Si](C)(C)C)c3=O)ccc2n1 [Example 213, 6-(2,2-difluoroethoxy)-2-(2-methyl-2H-indazol-5-yl)-4-((trimethylsilyl)ethynyl)pyrido[3,2-c]pyridazin-3(2H)-one] | 0.1 to 1 µM |  | ≥ 1 µM | ≥ 1 µM
14 | O=C1CCC(n2nc3ccc(OCC(F)F)nc3c(-c3ccc(OC(F)F)cc3)c2=O)CC1 [Example 216, 6-(2,2-difluoroethoxy)-4-(4-(difluoromethoxy)phenyl)-2-(4-oxocyclohexyl)pyrido[3,2-c]pyridazin-3(2H)-one] | 0.1 to 1 µM |  |  | 
15 | Cc1ccc(-c2c(=O)n(-c3ccc4nn(C)cc4c3)nc3ccc(NC4CC4)nc23)cn1 [Example 306] | < 0.1 µM |  |  | 
16 | COc1ccc(-c2c(=O)n(-c3ccc4nn(C)cc4c3)nc3ccc(NC4CC4)nc23)cn1 [Example 308] | < 0.1 µM |  |  | 
17 | CCNc1ccc2nn(-c3ccc4ncsc4c3)c(=O)c(-c3ccc(C4CC4)cc3)c2n1 [Example 311] | < 0.1 µM |  |  | 
18 | CCNc1ccc2nn(-c3ccc4nn(C)cc4c3)c(=O)c(-c3ccc(C4CC4)cc3)c2n1 [Example 312] | < 0.1 µM |  |  | 
19 | Cn1cc2cc(-n3nc4ccc(OCC5CC5(F)F)nc4c(-c4ccc(C5CC5)nc4)c3=O)ccc2n1 (stereo not drawn) [Example 314] | < 0.1 µM |  |  | 
20 | [2H]C([2H])([2H])c1ccc(-c2c(=O)n(-c3ccc4nn(C)cc4c3)nc3ccc(NCC)nc23)cn1 [Example 320] | < 0.1 µM |  |  | 
21 | [2H]C([2H])([2H])Oc1ccc(-n2nc3ccc(NCC(F)(F)F)nc3c(-c3ccc(C(F)F)nc3)c2=O)cc1 [Example 322, 4-(6-(difluoromethyl)pyridin-3-yl)-2-(4-(methoxy-d3)phenyl)-6-((2,2,2-trifluoroethyl)amino)pyrido[3,2-c]pyridazin-3(2H)-one] | < 0.1 µM |  |  | 
22 | [2H]C([2H])([2H])C([2H])([2H])Nc1ccc2nn(-c3ccc4nn(C)cc4c3)c(=O)c(-c3ccc(C(F)F)nc3)c2n1 [Example 324] | < 0.1 µM |  |  | 
23 | [2H]C([2H])([2H])n1cc2cc(-n3nc4ccc(NC([2H])([2H])C([2H])([2H])[2H])nc4c(-c4ccc(C)nc4)c3=O)ccc2n1 [Example 325] | < 0.1 µM |  |  | 
24 | CCNc1ccc2nn(-c3ccc(=O)n(C)c3)c(=O)c(-c3ccc(C(F)F)nc3)c2n1 [Example 326] | < 0.1 µM |  |  | 
25 | Cn1cc(-n2nc3ccc(OCC(F)F)nc3c(-c3ccc(C(F)F)nc3)c2=O)ccc1=O [Example 328] | 0.1 to 1 µM |  |  | 
26 | Cn1cc(-n2nc3ccc(NCC(F)(F)F)nc3c(-c3ccc(C(F)F)nc3)c2=O)ccc1=O [Example 329] | 0.1 to 1 µM |  |  | 
27 | [2H]C([2H])([2H])n1cc2cc(-n3nc4ccc(NCC)nc4c(-c4ccc(C)nc4)c3=O)ccc2n1 [Example 330] | < 0.1 µM |  |  | 
28 | CCNc1ccc2nn(-c3ccc4nn(C)cc4c3)c(=O)c(-c3ccc4[nH]cc(C#N)c4c3)c2n1 [Example 332, 5-(6-(ethylamino)-2-(2-methyl-2H-indazol-5-yl)-3-oxo-2,3-dihydropyrido[3,2-c]pyridazin-4-yl)-1H-indole-3-carbonitrile] | < 0.1 µM |  |  | 
